Results taken from US20210316003A1 (Immunomedics, Inc., priority 2020, published 2021).
Several values for one entry are separate records, joined by “and”; a condition that tells them apart may be missing. Equal entries are not always repeated. Entries after “also recorded” stand apart in the source; their conditions may differ.

Tests used:
[1] = system: patients with metastatic urothelial cancer (mUC); assay: Phase I/II trial IMMU-132-01 (NCT01631552), mUC cohort: efficacy by RECIST 1.1; assay type: in vivo, human; settings: for ORR (objective response rate): 10 mg/kg days 1 and 8 of 21-day cycles
Protocol: Endpoints included safety, investigator-evaluated objective response rate (ORR per RECIST 1.1), clinical benefit rate, duration of response (DOR), progression-free survival (PFS), and overall survival (OS). Sequencing analysis of differentially mutated and expressed genes and pathways was performed in subsets of tumors from responders and non-responders.
All patients had metastatic disease measurable by Response Evaluation Criteria in Solid Tumors, version 1.1 (RECIST 1.1) at the time of enrollment. Patients were required to have an Eastern Cooperative Oncology Group (ECOG) performance status of 0 to 1 with expected survival ≥6 months and adequate hepatic, renal, and hematologic function. […] Patients with stable brain metastases could be included only if they were ≥2 weeks beyond high-dose steroid treatment. Pre-selection of patients based on tumor Trop-2 expression was not required.
Hematopoietic growth factors or blood transfusions were allowed at the investigator's discretion, but not prior to the first dose. Other supportive care (antiemetics, anti-diarrheal medications, or bone-stabilizing agents) were allowed as medically needed.
Staging CT/magnetic resonance imaging (MRI) scans were obtained at baseline and at 8-week intervals from the start of treatment until progression requiring treatment discontinuation. […] Subsequent scans were done at 8-week intervals after the confirmatory scan. Patients with evidence of clinical benefit were permitted to receive treatment following disease progression. Response was assessed by investigators using RECIST, version 1.1. Efficacy endpoints included objective response rate (ORR), time to response, duration of response (DOR), clinical benefit rate (CBR; defined as CR, PR, or stable disease ≥6 months), progression-free survival (PFS), and overall survival (OS).
The data cut-off date for this analysis was Sep. 1, 2018. ORR and CBR were calculated with 95% confidence intervals estimated by the Clopper-Pearson method (Clopper & Pearson, 1934, Biometrika 26:404-13). PFS, OS, and time-to-event endpoints were analyzed by the Kaplan-Meier method, with medians and corresponding 95% confidence intervals determined by the Brookmeyer and Crowley method with log-log transformation. Descriptive statistics were used to characterize AEs. Fischer's exact test was applied to a matrix of pathway-associated gene counts of mutated and wild type phenotypes between responders and non-responders to identify pathways enriched in either of the two response groups. P-values for single sample GSEA (ssGSEA) enrichment score differences between the responder and non-responder patient groups were obtained from the Mann-Whitney statistical test.

[2] = system: patients with diverse metastatic cancers; settings: human, in vivo
From the text: In the Phase I and the expansion phases, there are now 48 pts (excluding PDC) who are assessable by RECIST/CT for best response.

[3] = system: patients with mSCLC; assay: Phase I/II trial (NCT01631552), mSCLC: efficacy by RECIST 1.1; assay type: in vivo, human
From the text: Patients ≥18 years of age with mSCLC who had relapsed or were refractory to at least one prior standard line of therapy for stage IV metastatic disease, and with measurable tumors by CT, were enrolled. […] Previous therapy had to be completed at least 4 weeks before enrollment.
The primary endpoint was the proportion of patients with a confirmed objective response, assessed approximately every 8 weeks until disease progression, by each institution's radiology group or a contracted local radiology service. Objective responses were assessed by Response Evaluation Criteria in Solid Tumors, version 1.1 (RECIST 1.1) (Eisenhauer et al., 2009, Eur J Cancer 45:228-47). Partial (PR) or complete responses (CR) required confirmation within 4 to 6 weeks after the initial response. Clinical benefit rate (CBR) is defined as those patients with an objective response plus stable disease (SD) ≥4 months. Survival was monitored every 3 months until death or withdrawal of consent.
The protocol provided that objective response rates (ORR) were determined for patients who received ≥2 doses (1 cycle) and had their initial 8-week CT assessment. Duration of response is defined in accordance to RECIST 1.1 criteria, with those having an objective response marked from time of the first evidence of response until progression, while stable disease duration is marked from the start of treatment until progression. PFS and OS were defined from the start of treatment until an objective assessment of progression was determined (PFS) or death (OS). Duration of response, PFS, and OS were estimated by Kaplan-Meier methods, with 95% confidence intervals (CI), using MedCalc Statistical Software, version 16.4.3 (Ostend, Belgium).

[4] = system: patients with mSCLC; assay: Antibody responses to sacituzumab govitecan, the IgG antibody and SN-38 in serum (ELISA), mSCLC; assay type: in vivo, human; settings: treatment up to 22 months, up to 63 doses
Protocol: Positivity required at least 10% of the tumor cells to be stained, with an intensity scored as 1+(weak), 2+(moderate), and 3+(strong). […] Assay sensitivity is 50 ng/mL for the ADC and the IgG, and 170 ng/mL for anti-SN-38 antibody.

[5] = 10 mg/kg, N = 45, listed as Sacituzumab Govitecan
[6] = SG as ≥3 line, no prior topotecan/irinotecan (N = 9)
[7] = SG as ≥3 line, prior topotecan/irinotecan (N = 15)
[8] = prior immune checkpoint inhibitor

In the case of sacituzumab govitecan, the “ORR (objective response rate)” value ([1]; N = 45, 10 mg/kg) is reported as 31% and 31.1%, the “ORR (objective response rate)” value ([1]; N = 45, listed as Sacituzumab Govitecan, 10 mg/kg) is reported as 31.1% and the “ORR, prior CPI- and platinum-treated patients” value ([1]; 10 mg/kg, 4 of 15, 10 mg/kg) is reported as 27% and 26.7%. The “ORR, prior CPI-treated patients” value ([1]; 10 mg/kg, 4 of 17, 10 mg/kg) was 24% and 23.5%, the “ORR, patients with liver metastases” value ([1]; 10 mg/kg, 5 of 15, 10 mg/kg) was 33% and 33.3% and the “ORR, patients with any visceral involvement” value ([1]; 10 mg/kg, 9 of 33) was 27.3%. For the same substance, the “Clinical benefit rate, No. of patients” value ([1]; 10 mg/kg, N = 45) was 21, the “Median OS” value ([1]; 10 mg/kg, N = 45) was 16.3 months and the “Median PFS” value ([1]; 10 mg/kg, N = 45) was 7.3 months. The “ORR, No. of patients” value ([1]; 10 mg/kg, N = 45) was 14, the “CR, % of patients” value ([1]; 10 mg/kg, N = 45, 10 mg/kg) was “(4.4) %” and the “PD, % of patients” value ([1]; 10 mg/kg, N = 45, 10 mg/kg) was “(22.2) %”. The “PR, % of patients” value ([1]; 10 mg/kg, N = 45, 10 mg/kg) was “(26.7) %”, the “CR, % of patients” value [1, 5] was 4.4% and the “PD, % of patients” value [1, 5] was 22.2%. The “PR, % of patients” value [1, 5] was 26.7%, the “Median DOR (duration of response)” value ([1]; 10 mg/kg, responders n = 14) was 12.9 months and the “Time to onset of response, median” value ([1]; 10 mg/kg, responders n = 14) was 1.9 months. For the same substance, the “Time to onset of response, range” value ([1]; 10 mg/kg, responders n = 14) was 1.7-7.4 months, the “Ongoing response of patients still on treatment at time of analysis” value ([1]; 3 patients, FIG. 1B) was > 17 months and > 19 months and > 29 months and the “Responders with response duration of more than 12 months” value ([1]; 7 of 14 responders) was 50%. For the same substance, the “Patients with a reduction of target lesions” value ([1]; 31 of 40 patients with post-baseline assessment) was 77.5%, the “Anti-hRS7 or anti-SN-38 antibodies” value [2] was “No anti-hRS7 or anti-SN-38 antibodies were detected” and the “Duration of SD in ten patients with SD ≥4 months, Kaplan-Meier-derived median” value [3] was 5.6 months. The “Median OS for the seven confirmed PR patients” value [3] was 9.2 months, the “Median OS for the ten patients with SD ≥4 months” value [3] was 8.3 months and the “Confirmed PR” value ([3]; 8 mg/kg starting dose, thirteen patients) was 8%. The “Confirmed PR” value ([3]; 10 mg/kg starting dose (N = 30)) was 20%, the “CBR (clinical benefit rate)” value ([3]; 10 mg/kg starting dose, 14/30) was 47% and the “Patients with a reduction of tumor size from baseline” value ([3]; 21 of 43 CT-assessable patients) was 49%. The “Stable disease (SD), including unconfirmed PR” value ([3]; 21 of 43 assessable patients) was 49%, the “PD, %” value ([3]; 43 with response assessment) was “(35%)” and the “Duration of confirmed objective response, median” value ([3]; Kaplan-Meier) was 5.7 months. The “Clinical benefit rate (PR + SD ≥ 4 months), %” value ([3]; SG as second line (N = 19)) was “(37%)”, the “OS, median” value ([3]; SG as second line (N = 19)) was 8.1 months and the “PFS, median” value ([3]; SG as second line (N = 19)) was 3.6 months. For the same substance, the “Clinical benefit rate (PR + SD ≥ 4 months), %” value ([3]; SG as ≥3 line (N = 24)) was “(38%)”, the “OS, median” value ([3]; SG as ≥3 line (N = 24)) was 7.0 months and the “PFS, median” value ([3]; SG as ≥3 line (N = 24)) was 3.7 months. The “Clinical benefit rate (PR + SD ≥ 4 months), %” value [3, 6] was “(33%)”, the “OS, median” value [3, 6] was 5.5 months and the “PFS, median” value [3, 6] was 3.7 months. The “Clinical benefit rate (PR + SD ≥ 4 months), %” value [3, 7] was “(40%)”, the “OS, median” value [3, 7] was 8.8 months and the “PFS, median” value [3, 7] was 3.8 months and 3.6 months. For the same substance, the “Overall survival, median” value ([3]; intention-to-treat N = 53) was 7.0 months, the “Progression-free survival, median” value ([3]; intention-to-treat N = 53) was 3.6 months and the “Tumor shrinkage (SD lasting 8.7 months), single patient” value [3, 8] was 17%. For the same substance, the “Tumor shrinkage on first assessment (unconfirmed PR), single patient” value [3, 8] was 54%, the “Clinical benefit rate (PR + SD ≥ 4 months), %” value ([3]; resistant (N = 19) to 1st line) was “(26%)” and the “OS, median” value ([3]; resistant (N = 19) to 1st line) was 6.2 months. For the same substance, the “PFS, median” value ([3]; resistant (N = 19) to 1st line) was 3.6 months, the “Confirmed PR” value ([3]; resistant to first-line platinum, nineteen patients) was 16% and the PR ([3]; second-line setting, 3/19) was 16%. For the same substance, the “Clinical benefit rate (PR + SD ≥ 4 months), %” value ([3]; sensitive (N = 24) to 1st line) was “(50%)”, the “OS, median” value ([3]; sensitive (N = 24) to 1st line) was 8.3 months and the “PFS, median” value ([3]; sensitive (N = 24) to 1st line) was 3.8 months. The “Confirmed PR” value ([3]; sensitive to first-line platinum, 24 patients) was 17%, the “Median time to response” value ([3]; seven confirmed PR) was 2.0 months and the “Median PFS for the confirmed PR group” value ([3]; seven patients) was 7.9 months. For the same substance, the “Confirmed PR” value ([3]; third or higher line (N = 24)) was 16% and the “Immunogenicity: antibodies to sacituzumab govitecan, the hRS7 antibody, or SN-38” value [4] was “not immunogenic; also recorded: No neutralizing antibodies”.
